In the test the target is T1, SNX1 (SORTING NEXIN1; AtSNX1) (Arabidopsis thaliana, UniProt Q9FG38).
T1 construct: full-length cDNA in pET51b, His-tagged (tag kept), E. coli Rosetta (DE3), Ni-NTA purified
T1 sequence (Q9FG38 1-402): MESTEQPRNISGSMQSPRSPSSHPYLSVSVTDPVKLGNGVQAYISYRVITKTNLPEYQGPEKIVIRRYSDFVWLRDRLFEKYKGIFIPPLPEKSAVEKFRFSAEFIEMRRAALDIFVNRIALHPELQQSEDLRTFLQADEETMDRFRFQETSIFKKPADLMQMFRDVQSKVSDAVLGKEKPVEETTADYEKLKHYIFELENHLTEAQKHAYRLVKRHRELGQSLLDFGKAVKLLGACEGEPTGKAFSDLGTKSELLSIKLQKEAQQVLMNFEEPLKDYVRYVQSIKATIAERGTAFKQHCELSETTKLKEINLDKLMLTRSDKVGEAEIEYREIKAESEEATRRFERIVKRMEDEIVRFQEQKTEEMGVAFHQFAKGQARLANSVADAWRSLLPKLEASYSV
Description: liposome co-sedimentation, immunoblot. Particulars: dioleoyl PC/dioleoyl PA liposomes, pH 7.5, 25 °C; PA (acyl chains not told) also tested by lipid-protein overlay. The format is binding. In general terms: In western blotting, separated proteins are transferred to a membrane and probed.

For `CCCCCCCC/C=C\CCCCCCCC(=O)OC[C@H](COP(=O)(O)O)OC(=O)CCCCCCC/C=C\CCCCCCCC` [dioleoyl PA], the “liposome co-sedimentation, immunoblot” value is given as “results confirmed the specific SNX1‐PA binding (Fig. 4b)”.

(Values after PMC7065129, “Phospholipase D‐derived phosphatidic acid promotes root hair development under phosphorus deficiency by suppressing vacuolar degradation of PIN‐FORMED2” (The New Phytologist, 2019).)
